Data reported in patent publication US9181193B2, “Indenoquinolone compound, preparation method and use thereof” (Second Military Medical University, PLA, priority 2010, dated 2015).
Converted amounts (≈) assume the structure as drawn.

Experiments:
[1] = tested on: human lung cancer cell line A549; test: Anti-tumor activity test in vivo, nude mouse model of A549; conditions: nude mouse model of A549, dose of 1-200 mg/kg weight
Excerpt: The activities of some compounds in vivo in the nude mouse model of human lung cancer cell line A549 were detected by using literature methods (WEI Hong. Medical Experiments Zoology. 2nd edition. Chengdu: Sichuan Science and Technology Press, 2001: 595-596).

[2] = tested on: HepG2 (human hepatoma cells); test: MTT in vitro anti-tumor activity test, HepG2; assay type: cell-based; conditions: for IC50: Homo sapiens, HepG2, 72 h, read-out: HepG2 IC50
[3] = tested on: MDA-MB-435 (human breast cancer cells); test: MTT in vitro anti-tumor activity test, MDA-MB-435; assay type: cell-based; conditions: for IC50: Homo sapiens, MDA-MB-435, 72 h, read-out: MDA-MB-435 IC50
[4] = tested on: A549 (human lung cancer cells); test: MTT in vitro anti-tumor activity test, A549; assay type: cell-based; conditions: for IC50: Homo sapiens, A549, 72 h, read-out: A549 IC50
[5] = tested on: Colo205 (human colon cancer cells); test: MTT in vitro anti-tumor activity test, Colo205; assay type: cell-based; conditions: for IC50: Homo sapiens, COLO 205, 72 h, read-out: Colo205 IC50
[6] = HepG2 human hepatoma cells, MTT, 72 h
[7] = MDA-MB-435, 100 μg/mL, MTT, 72 h
[8] = MDA-MB-435 human breast cancer cells, MTT, 72 h
[9] = A549 human lung cancer cells, MTT, 72 h
[10] = Colo205 human colon cancer cells, MTT, 72 h
[11] = MTT assay, 72 h incubation, HepG2 cells
[12] = inhibition at 100 μg/mL, MTT assay, 72 h, HepG2 cells
[13] = MTT assay, 72 h incubation, MDA-MB-435 cells
[14] = inhibition at 100 μg/mL, MTT assay, 72 h, MDA-MB-435 cells
[15] = MTT assay, 72 h incubation, A549 cells
[16] = inhibition at 100 μg/mL, MTT assay, 72 h, A549 cells
[17] = MTT assay, 72 h incubation, Colo205 cells
[18] = inhibition at 100 μg/mL, MTT assay, 72 h, Colo205 cells

| Structure (SMILES) | anti-tumor activity in vivo [1] | HepG2 100 μg/mL IC % ([2]; HepG2, 100 μg/mL, MTT, 72 h) [%] | HepG2 IC50 [2, 6] [µg/mL] | MDA-MB-435 100 μg/mL IC % [3, 7] [%] | MDA-MB-435 IC50 [3, 8] [µg/mL] | A549 100 μg/mL IC % ([4]; A549, 100 μg/mL, MTT, 72 h) [%] | A549 IC50 [4, 9] [µg/mL] | Colo205 100 μg/mL IC % ([5]; Colo205, 100 μg/mL, MTT, 72 h) [%] | Colo205 IC50 [5, 10] [µg/mL] | HepG2 100 μg/mL IC % [2, 12] [%] | MDA-MB-435 100 μg/mL IC % [3, 14] [%] | A549 100 μg/mL IC % [4, 16] [%] | Colo205 100 μg/mL IC % [5, 18] [%] | IC50 [2] [µg/mL] | IC50 [3] [µg/mL] | IC50 [4] [µg/mL] | IC50 [5] [µg/mL] | further results |
| --- | --- | --- | --- | --- | --- | --- | --- | --- | --- | --- | --- | --- | --- | --- | --- | --- | --- | --- |
| CCN(CC)CCOc1nc2ccc(OC)cc2c2c1-c1ccc(OC)cc1C2=O [Compound 14] | good anti-tumor activity in vivo | 100 | 0.552 | 99.95 | 1.29 | 100 | 6.11 | 97.47 | 0.580 | – | – | – | – | – | – | – | – | – |
| COc1ccc2c(c1)C(=O)c1c-2c(OCCCN(C)C)nc2ccccc12 [Compound 6] | good anti-tumor activity in vivo | 98.33 | 2.17 | 100 | 3.64 | 100 | 1.14 | 100 | 0.719 | – | – | – | – | – | – | – | – | – |
| COc1ccc2c(c1)C(=O)c1c-2c(OCCN(C)C)nc2cc(OC)c(OC)cc12 [Compound 20] | good anti-tumor activity in vivo | 99.17 | 1.28 | 99.28 | 0.99 | 100 | 13.78 | 93.79 | 0.606 | – | – | – | – | – | – | – | – | – |
| COc1ccc2c(c1)C(=O)c1c-2c(=O)n(CCCN(C)C)c2cc(OC)c(OC)cc12 [Compound 46] | good anti-tumor activity in vivo | – | – | – | – | – | – | – | – | 90.77 | 85.86 | 68.78 | 87.44 | – | – | – | – | HepG2 IC50 [2, 11]: 12.02 µg/mL; MDA-MB-435 IC50 [3, 13]: 0.267 µg/mL; A549 IC50 [4, 15]: 12.52 µg/mL; Colo205 IC50 [5, 17]: 22.18 µg/mL |
| COc1ccc2c(c1)C(=O)c1c-2c(OCCN(C)C)nc2ccccc12 [Compound 1] | good anti-tumor activity in vivo | 99.40 | – | 95.81 | – | 100 | – | 100 | – | – | – | – | – | 0.721 (≈ 2.07 µM) | 1 (≈ 2.87 µM) | 0.983 (≈ 2.82 µM) | 0.621 (≈ 1.78 µM) | melting point: 116 to 118 °C |
| CC[C@@]1(O)C(=O)OCc2c1cc1n(c2=O)Cc2cc3cc(O)ccc3nc2-1 [HCPT, 10-hydroxycamptothecin, reference compound] | – | 100 | – | 96.71 | – | 84.68 | – | 88.14 | – | 100 | 96.71 | 84.68 | 88.14 | 0.147 (≈ 0.403 µM) | 0.00127 (≈ 0.00349 µM) | 0.00364 (≈ 0.00999 µM) | 0.0049 (≈ 0.0134 µM) | – |
| COc1ccc2c(c1)C(=O)c1c-2c(=O)n(CCN(C)C)c2ccccc12 [Compound 31, 5-(2-dimethylaminoethyl)-9-methoxy-5H-indeno[1,2-c]quinoline-6,11-dione] | – | – | – | – | – | – | – | – | – | 90.60 | 86.09 | 93.62 | 88.35 | 0.746 (≈ 2.14 µM) | 1.83 (≈ 5.25 µM) | 1.72 (≈ 4.94 µM) | 1.2 (≈ 3.44 µM) | melting point: 198 to 200 °C |
| CN(C)CCn1c(=O)c2c(c3ccccc31)C(=O)c1cc(Cl)ccc1-2 [Compound 35] | – | – | – | – | – | – | – | – | – | 100 | 100 | 72.15 | 100 | – | – | – | – | HepG2 IC50 [2, 11]: 20.09 µg/mL; MDA-MB-435 IC50 [3, 13]: 3.88 µg/mL; A549 IC50 [4, 15]: 19.04 µg/mL; Colo205 IC50 [5, 17]: 3.89 µg/mL |
